The data set has as its system rgRSV224 virus. As to the kind of experiment: microbe, parasite or virus in culture. In kind it is cell-based, respiratory syncytial virus (RSV). Conditions: for EC50: read-out: WT activity EC50; for SI CC50/EC50: selectivity index, CC50 (HeLa cytotoxicity) over EC50 (rgRSV224). The protocol: Black 96-well clear-bottom microtiter plates (Corning, Amsterdam, The Netherlands) were filled in duplicate using a customized robot system with serial 4-fold dilutions of compound in a final volume of 50 μl culture medium [RPMI medium without phenol red, 10% FBS, 0.04% gentamycin (50 mg/mL) and 0.5% DMSO]. Then, 100 μl of a HeLa cell suspension (5×10^4 cells/mL) in culture medium was added to each well followed by the addition of 50 μl rgRSV224 (MOI=0.02) virus in culture medium using a multidrop dispenser (Thermo Scientific, Erembodegem, Belgium). rgRSV224 virus is an engineered virus that includes an additional GFP gene (Hallak et al, 2000) and was in-licensed from the NIH (Bethesda, Md., USA). Medium, virus- and mock-infected controls were included in each test. Cells were incubated at 37° C. in a 5% CO2 atmosphere. Three days post-virus exposure, viral replication was quantified by measuring GFP expression in the cells by a MSM laser microscope (Tibotec, Beerse, Belgium). […] In parallel, compounds were incubated for three days in a set of white 96-well microtitier plates (Corning) and the cytotoxicity of compounds in HeLa cells was determined by measuring the ATP content of the cells using the ATPlite kit (PerkinElmer, Zaventem, Belgium) according to the manufacturer's instructions.

Setting [1] is: Table 2, rgRSV224 in HeLa cells, GFP expression three days post-virus exposure.
Where [2] appears, read: human respiratory syncytial virus, HeLa, 72 h.

Read-outs that look alike come from different tables or passages of the source. A value given as a limit tells only on which side of the number the result lay.

On to `CC(C)CCn1c(Cn2c(=O)n(C3CC3)c3ccc(F)cc32)nc2cc(Cl)ccc21` [P28], for which the EC50 (usually the concentration at which the effect is half-maximal) under setting [1] was found to be 2.32 nM. In addition, the “SI CC50/EC50” value (Table 2) is 14563.

For the compound `O=c1n(Cc2nc3cc(Cl)ccc3n2CCCCF)c2cnccc2n1C1CC1` [P31], under setting [1], the concentration for a half-maximal effect (EC50) was 0.19 nM. Also, the “SI CC50/EC50” value (Table 2) is reported as over 267110.

For the compound `CC(C)CCn1c(Cn2c(=O)n(C3CC3)c3ccc(F)cc32)nc2cc(Br)ccc21` [P32], the EC50 under setting [1] worked out at 2.53 nM. Moreover, where the note is “Table 2”, the “SI CC50/EC50” value worked out at 25508.

On to `CC(C)(C)OC(=O)Cn1c(=O)n(Cc2nc3cc(Cl)ccc3n2CCCCF)c2cnccc21` [P33, tert-butyl (3-{[5-chloro-1-(4-fluorobutyl)-1H-benzimidazol-2-yl]methyl}-2-oxo-2,3-dihydro-1H-imidazo[4,5-c]pyridin-1-yl)acetate], for which, for the setting “Table 2”, the “SI CC50/EC50” value was over 49120. In addition, the EC50 under setting [2] was 1.9 nM.

For the compound `CS(=O)(=O)n1c(=O)n(Cc2nc3cc(Cl)ccc3n2CCCCF)c2cnccc21` [P34, 3-((5-chloro-1-(4-fluorobutyl)-1H-benzo[d]imidazol-2-yl)methyl)-1-(methylsulfonyl)-1H-imidazo[4,5-c]pyridin-2(3H)-one], the “SI CC50/EC50” value (Table 2) is >1 048 580. Further, under setting [2], the half-maximal effective concentration (EC50) amounted to 0.09 nM.

Turning to `CC(C)CCn1c(Cn2c(=O)n(C3CC3)c3ccccc32)nc2cc(Cl)ccc21` [P35], the EC50 under setting [1] came out at 2.63 nM. The “SI CC50/EC50” value (Table 2) came to 33466.

Take `O=C(CCCn1c(Cn2c(=O)n(C3CC3)c3ccncc32)nc2cc(Br)ccc21)NCCS(=O)(=O)n1ccnc1` [P38]: under setting [1], the EC50 came out at 0.22 nM. In addition, the “SI CC50/EC50” value (Table 2) is recorded as over 445390.

On to `O=c1n(Cc2nc3cc(Cl)ccc3n2CCCCF)c2cnccc2n1CC(F)F` [P40], for which the EC50 under setting [1] came out at 0.048 nM. Under “Table 2”, the “SI CC50/EC50” value is 2000000.

Regarding `O=c1n(Cc2ccc(F)cc2)c2ccncc2n1Cc1nc2cc(Cl)ccc2n1CCCCF` [P41], under setting [1], the EC50 amounted to 0.16 nM. For the same compound, the “SI CC50/EC50” value (Table 2) was found to be 503466.

On to `O=c1n(Cc2nc3cc(Cl)ccc3n2CCCNc2ncccn2)c2cnccc2n1C1CC1` [P44], for which the EC50 under setting [1] was found to be 0.3 nM. Further, the “SI CC50/EC50” value (Table 2) is 302162.

In the case of `O=C(O)CCCn1c(Cn2c(=O)n(C3CC3)c3ccncc32)nc2cc(Cl)ccc21` [P45, 4-(5-chloro-2-((1-cyclopropyl-2-oxo-1H-imidazo[4,5-c]pyridin-3(2H)-yl)methyl)-1H-benzo[d]imidazol-1-yl)butanoic acid], the “SI CC50/EC50” value (Table 2) is given as “D. >19412”. The EC50 under setting [2] came to 5.15 nM.

For the compound `O=C1c2ccccc2C(=O)N1CCCCn1c(Cn2c(=O)n(C3CC3)c3ccncc32)nc2cc(Cl)ccc21` [P46], under setting [1], the EC50 came out at 0.57 nM. For the same compound, the “SI CC50/EC50” value (Table 2) is on record as over 44185.

On to `O=c1n(Cc2nc3cc(Cl)ccc3n2CCCCc2ccccn2)c2cnccc2n1C1CC1` [P47], for which the EC50 under setting [1] amounted to 0.76 nM. Besides, the “SI CC50/EC50” value (Table 2) is 84254.

As for `O=C(CCCn1c(Cn2c(=O)n(C3CC3)c3ccncc32)nc2cc(Br)ccc21)N1CCOCC1` [P48, 3-((5-bromo-1-(4-morpholino-4-oxobutyl)-1H-benzo[d]imidazol-2-yl)-methyl)-1-cyclopropyl-1H-imidazo[4,5-c]pyridin-2(3H)-one], the “SI CC50/EC50” value (Table 2) was over 102584. Also, under setting [2], the EC50 was found to be 0.97 nM.

As for `O=C(CCCn1c(Cn2c(=O)n(C3CC3)c3ccncc32)nc2cc(Cl)ccc21)NS(=O)(=O)C1CC1` [P49, 4-(5-chloro-2-((1-cyclopropyl-2-oxo-1H-imidazo[4,5-c]pyridin-3 (2H)-yl)methyl)-1H-benzo[d]imidazol-1-yl)-N-(cyclopropylsulfonyl)butanamide], for the setting “Table 2”, the “SI CC50/EC50” value is listed as over 55412. In addition, the EC50 under setting [2] turned out to be 1.8 nM.

For the compound `O=c1n(Cc2nc3cc(Cl)ccc3n2CCCc2ccccc2)c2cnccc2n1C1CC1` [P50], the EC50 under setting [1] stood at 0.23 nM. The “SI CC50/EC50” value (Table 2) is on record as 93799.

In the case of `O=c1n(Cc2nc3cc(Cl)ccc3n2CCCn2ccnc2)c2cnccc2n1C1CC1` [P51, 3-({5-chloro-1-[3-(1H-imidazol-1-yl)propyl]-1H-benzimidazol-2-yl}methyl)-1-cyclopropyl-1,3-dihydro-2H-imidazo[4,5-c]pyridin-2-one], under “Table 2”, the “SI CC50/EC50” value is over 401504. Moreover, the EC50 under setting [2] was 0.25 nM.

For the compound `CC(C)(C)OC(=O)CCCn1c(Cn2c(=O)n(C3CC3)c3ccncc32)nc2cc(Cl)ccc21` [P52], the EC50 under setting [1] was 0.55 nM. Also, the “SI CC50/EC50” value (Table 2) is reported as 70937.

As to `O=c1n(Cc2nc3cc(Cl)ccc3n2CCCC(F)(F)F)c2cc(F)ccc2n1C1CC1` [P58], the concentration for a half-maximal effect (EC50) under setting [1] amounted to 0.49 nM. In addition, for the setting “Table 2”, the “SI CC50/EC50” value was determined as 104559.

Take `CN(C(=O)CCCn1c(Cn2c(=O)n(C3CC3)c3ccncc32)nc2cc(Cl)ccc21)S(=O)(=O)C1CC1` [P59, 4-(5-chloro-2-((1-cyclopropyl-2-oxo-1H-imidazo[4,5-c]pyridin-3(2H)-yl)methyl)-1H-benzo[d]imidazol-1-yl)-N-(cyclopropylsulfonyl)-N-methylbutanamide]: the “SI CC50/EC50” value (Table 2) was over 604770. Also, under setting [2], the concentration for a half-maximal effect (EC50) amounted to 0.17 nM.

In the case of `CC(C)(C)OC(=O)Cn1c(=O)n(Cc2nc3cc(Cl)ccc3n2CCCC(F)(F)F)c2cnccc21` [P60], the EC50 under setting [1] came to 1.68 nM. Besides, the “SI CC50/EC50” value (Table 2) is reported as over 59486.

Consider `O=C(CCn1c(Cn2c(=O)n(C3CC3)c3ccc(F)cc32)nc2cc(Cl)ccc21)N1CCOCC1` [P62], for which the EC50 under setting [1] was determined as 1.36 nM. In addition, the “SI CC50/EC50” value (Table 2) is over 73334.

As to `O=C(CCCn1c(Cn2c(=O)n(C3CC3)c3ccncc32)nc2cc(Cl)ccc21)N1CCOCC1` [P63], the EC50 under setting [1] worked out at 1 nM. Besides, the “SI CC50/EC50” value (Table 2) is on record as over 98994.

For `O=C(CCn1c(Cn2c(=O)n(C3CC3)c3ccncc32)nc2cc(Cl)ccc21)N1CCOCC1` [P64], under setting [1], the EC50 was determined as 1.45 nM. The “SI CC50/EC50” value (Table 2) is reported as over 68795.

With `N#CCCCn1c(Cn2c(=O)n(C3CC3)c3ccccc32)nc2cc(Cl)ccc21` [P70], the EC50 under setting [1] amounted to 0.631 nM. For the same compound, the “SI CC50/EC50” value (Table 2) is recorded as over 159787.

`CN(C)C(=O)Cn1c(=O)n(Cc2nc3cc(Cl)ccc3n2CCCCF)c2cnccc21` [P71]: the EC50 under setting [1] stood at 2.5 nM. Moreover, the “SI CC50/EC50” value (Table 2) was over 39781.

As for `N#CCCCn1c(Cn2c(=O)n(C3CC3)c3ccc(F)cc32)nc2cc(Cl)ccc21` [P73], the EC50 under setting [1] stood at 1.58 nM. Moreover, for the setting “Table 2”, the “SI CC50/EC50” value was determined as 23633.

For `O=C(CCCn1c(Cn2c(=O)n(C3CC3)c3ccncc32)nc2cc(Br)ccc21)N1CCCCS1(=O)=O` [P74], under setting [1], the 50% effective concentration (EC50) came to 1.18 nM. Moreover, the “SI CC50/EC50” value (Table 2) was over 84529.

Take `O=C(CCCn1c(Cn2c(=O)n(C3CC3)c3ccncc32)nc2cc(Br)ccc21)N1CCCS1(=O)=O` [P75]: the EC50 under setting [1] was 0.2 nM. The “SI CC50/EC50” value (Table 2) is over 444590.

On to `NS(=O)(=O)NC(=O)CCCn1c(Cn2c(=O)n(C3CC3)c3ccncc32)nc2cc(Br)ccc21` [P76, 4-(5-bromo-2-((1-cyclopropyl-2-oxo-1H-imidazo[4,5-c]pyridin-3(2H)-yl)methyl)-1H-benzo[d]imidazol-1-yl)-N-sulfamoylbutanamide], for which the “SI CC50/EC50” value (Table 2) is recorded as over 214887. Under setting [2], the EC50 worked out at 0.47 nM.

For `CCCS(=O)(=O)NC(=O)CCCn1c(Cn2c(=O)n(C3CC3)c3ccncc32)nc2cc(Br)ccc21` [P78], the EC50 under setting [1] is 1.73 nM. Besides, the “SI CC50/EC50” value (Table 2) was over 57893.

For `CN(C(=O)CCCn1c(Cn2c(=O)n(C3CC3)c3ccncc32)nc2cc(Br)ccc21)S(C)(=O)=O` [P79], under setting [1], the EC50 was 0.56 nM. Further, the “SI CC50/EC50” value (Table 2) is listed as over 177178.

`CS(=O)(=O)NC(=O)CCCn1c(Cn2c(=O)n(C3CC3)c3ccncc32)nc2cc(Br)ccc21` [P80]: the EC50 under setting [1] stood at 1 nM. The “SI CC50/EC50” value (Table 2) is over 99444.

As for `CCCCS(=O)(=O)NC(=O)CCCn1c(Cn2c(=O)n(C3CC3)c3ccncc32)nc2cc(Br)ccc21` [P81], the EC50 under setting [1] was determined as 7.25 nM. For the setting “Table 2”, the “SI CC50/EC50” value is reported as over 13798.

In the case of `NC(=O)CCCn1c(Cn2c(=O)n(C3CC3)c3ccncc32)nc2cc(Br)ccc21` [P82], under setting [1], the EC50 is 0.58 nM. Further, the “SI CC50/EC50” value (Table 2) is on record as over 85761.

On to `CNC(=O)CCCn1c(Cn2c(=O)n(C3CC3)c3ccncc32)nc2cc(Br)ccc21` [P83], for which the EC50 under setting [1] turned out to be 0.9 nM. Also, the “SI CC50/EC50” value (Table 2) is over 111709.

Take `CS(=O)(=O)CCCn1c(Cn2c(=O)n(C3CC3)c3ccncc32)nc2ccccc21` [Ref1, reference compound]: the EC50 under setting [1] turned out to be 2.5 nM. Also, where the note is “Table 2”, the “SI CC50/EC50” value was over 4315.

On to `O=c1n(Cc2nc3ccccc3n2CCCCO)c2cnccc2n1C1CC1` [Ref2, reference compound], for which, under setting [1], the EC50 was 3.98 nM.
